{"source": "patent US10350391B2", "about": "“Drug delivery medical device” (Micell Technologies, Inc., priority 2009, dated 2019)", "key": {"[1]": {"experiment": "Sirolimus content of rabbit iliac arteries after inflation of sirolimus coated balloons", "format": "in vivo", "description": "GHOST Rapid Exchange (Rx) Catheter was used in this example. Ghost 3.0×18 mm Rx catheter balloons were coated and used in animal study\nA. Expansion in rabbit iliac arteries: 8 balloons (4 rabbits)\n(§1) • 4 balloons—Balloons inflated in pre-dilated arteries (right iliac) for 60 seconds • 4 balloons—Balloons inflated in non-dilated arteries (left iliac) for 60 seconds B. Tracking Studies: 4 balloons (1 rabbit) • 4 balloons—Balloons inserted and not inflated in aorta for 2 min, then removed C. Sirolimus Quantification • Sirolimus content from: 8 balloons inflated in rabbit iliac arteries 4 balloons not inflated in rabbit aorta 8 rabbit iliac arteries (after balloon inflation) 8 whole blood samples (2 samples/rabbit) • Liver, kidney, spleen, heart, lung: stored (−80° C.) for later drug analysis Sirolimus Concentrations in Rabbit Iliac Arteries\n• Drug coated balloons in right iliac arteries inflated/deflated—10-20 min before sacrifice • Drug coated balloons in left iliac arteries inflated/deflated—5-15 min before sacrifice Transfer Efficiency of Sirolimus to Rabbit Iliac Arteries\n• Balloons inflated for 1 min in respective iliac arteries • % Sirolimus transferred to artery based on balloon batch average from UV-Vis data • Estimated time artery exposed to blood flow is time after balloon inflation"}, "[2]": {"experiment": "Sirolimus concentrations in whole blood samples after balloon inflation", "format": "in vivo, rabbit", "details": "for Est. Total Sirolimus in Blood: based on 56 mL per kg", "description": "as §1\n• Baseline samples taken before balloon inflation • After 2nd balloon inflation, blood samples were taken 5-15 min later • 5-15 min samples are the cumulative Sirolimus concentration from the inflation of 2 drug coated balloons per animal Total Sirolimus in blood based on 56 mL per kg Sirolimus Concentrations on Drug Coated Balloons (Rabbits)"}, "[3]": {"details": "Combined Right + Left Iliac Arteries, n = 8"}}, "note": "Several values for one entry are separate records, joined by “and”; a condition that tells them apart may be missing. Equal values may be shown once. Read-outs that look alike come from different tables or passages of the source."}
{"smiles": "CO[C@H]1C[C@@H]2CC[C@@H](C)[C@@](O)(O2)C(=O)C(=O)N2CCCC[C@H]2C(=O)O[C@H]([C@H](C)C[C@@H]2CC[C@@H](O)[C@H](OC)C2)CC(=O)[C@H](C)/C=C(\\C)[C@@H](O)[C@@H](OC)C(=O)[C@H](C)C[C@H](C)/C=C/C=C/C=C/1C", "note": "[Sirolimus, rapamycin]", "values": [{"measurement": "Average Sirolimus", "setting": "[1]; [3]", "result": "197.2 ± 85.3 ng/mg and 197.2 ng/mg"}, {"measurement": "Total Sirolimus per Artery Average", "setting": "[1]; [3]", "result": 4.7, "unit": "µg"}, {"measurement": "Total Sirolimus per Artery Average", "setting": "[1]; Left Iliac (uninjured), n = 4", "result": 3.9, "unit": "µg"}, {"measurement": "Average Sirolimus", "setting": "[1]; Left Iliac (uninjured), n = 4, coated balloon inflated 60 s, 5-15 min before sacrifice", "result": 216.1, "unit": "ng/mg"}, {"measurement": "Total Sirolimus per Artery Average", "setting": "[1]; Right Iliac (denuded), n = 4", "result": 5.4, "unit": "µg"}, {"measurement": "Average Sirolimus", "setting": "[1]; Right Iliac (denuded), n = 4, coated balloon inflated 60 s, 10-20 min before sacrifice", "result": 178.3, "unit": "ng/mg"}, {"measurement": "Total Sirolimus per Artery", "setting": "[1]; average of the 8 balloons/arteries", "result": 4.7, "unit": "µg"}, {"measurement": "% Sirolimus Transferred to Artery", "setting": "[1]; average of the 8 balloons/arteries, based on balloon batch average from UV-Vis data", "result": "7.8±2.8% and 7.8%"}, {"measurement": "Est. Total Sirolimus in Blood", "setting": "[2]; average of 4 rabbits (5-15 min)", "result": "5.4 ± 2.3 µg and 5.4 µg"}, {"measurement": "Est. Total Sirolimus in Blood", "setting": "[2]; rabbit #1, 15 min", "result": 2.7, "unit": "µg"}, {"measurement": "Est. Total Sirolimus in Blood", "setting": "[2]; rabbit #2, 5 min", "result": 8.2, "unit": "µg"}, {"measurement": "Est. Total Sirolimus in Blood", "setting": "[2]; rabbit #3, 5 min", "result": 5.9, "unit": "µg"}, {"measurement": "Est. Total Sirolimus in Blood", "setting": "[2]; rabbit #4, 10 min", "result": 4.8, "unit": "µg"}, {"measurement": "concentration at 15 min", "setting": "[2]; rabbit, whole blood, rabbit #1, 15 min after 2nd balloon inflation, cumulative of 2 coated balloons, read-out: Extraction Conc.", "result": 11.4, "unit": "ng/mL"}, {"measurement": "concentration at 5 min", "setting": "[2]; rabbit, whole blood, rabbit #2, 5 min after 2nd balloon inflation, cumulative of 2 coated balloons, read-out: Extraction Conc.", "result": 30.8, "unit": "ng/mL"}, {"measurement": "concentration at 5 min", "setting": "[2]; rabbit, whole blood, rabbit #3, 5 min after 2nd balloon inflation, cumulative of 2 coated balloons, read-out: Extraction Conc.", "result": 22.2, "unit": "ng/mL"}, {"measurement": "concentration at 10 min", "setting": "[2]; rabbit, whole blood, rabbit #4, 10 min after 2nd balloon inflation, cumulative of 2 coated balloons, read-out: Extraction Conc.", "result": 19.3, "unit": "ng/mL"}, {"measurement": "Extraction Conc.", "setting": "[2]; whole blood, average of 4 rabbits (5-15 min)", "result": 20.9, "unit": "ng/mL"}]}
